Where “and” joins values, the source holds several entries; their conditions need not be identical. Equal entries are not always repeated. Where two headings read alike, the source gives them in different places.
How the values were obtained:
[1] = system: Aspergillus parasiticus; experiment: microbe, parasite or virus in culture; assay type: cell-based
[2] = system: aflatoxines produced by Aspergillus parasiticus; experiment: microbe, parasite or virus in culture; assay type: cell-based
[3] = log P by HPLC on reversed-phase column (EEC Directive 79/831 Annex V.A8); assay type: physicochemical
Protocol: In table 1, the log P values were determined in accordance with EEC Directive 79/831 Annex V.A8 by HPLC (High Performance Liquid Chromatography) on a reversed-phase column (C18), using the method described below: Temperature: 40° C.; […]

[4] = system: Alternaria solani; experiment: In vivo preventive test on Alternaria solani (tomato); conditions: 500 ppm of active ingredient, evaluated 7 days after inoculation
Protocol: Solvent: 49 parts by weight of N,N-dimethylformamide Emulsifier: 1 part by weight of Alkylarylpolyglycolether To produce a suitable preparation of active compound, 1 part by weight of active compound is mixed with the stated amounts of solvent and emulsifier, and the concentrate is diluted with water to the desired concentration. To test for preventive activity, young plants are sprayed with the preparation of active compound at the stated rate of application. One day after this treatment, the plants are inoculated with an aqueous spore suspension of Alternaria solani.

[5] = system: Pyrenophora teres; experiment: In vivo preventive test on Pyrenophora teres (barley); conditions: 500 ppm of active ingredient, evaluated 7-9 days after inoculation
Protocol: Solvent: 49 parts by weight of N,N-dimethylformamide Emulsifier: 1 part by weight of alkylaryl polyglycol ether To produce a suitable preparation of active compound, 1 part by weight of active compound is mixed with the stated amounts of solvent and emulsifier, and the concentrate is diluted with water to the desired concentration. To test for preventive activity, young plants are sprayed with the preparation of active compound at the stated rate of application. One day after this treatment, the plants are inoculated with an aqueous spore suspension of Pyrenophora teres.

SMILES	% Inhibition of fungal growth at 50 μM [1] [%]	% Inhibition of Aflatoxin at 50 μM [2] [%]	logP ([3]; mixture of two or more isomers, one value per isomer, HPLC reversed-phase C18, 40° C., 0.1% aqueous formic acid and acetonitrile)	Efficacy [4] [%]	Efficacy [5] [%]	logP [3]	% Inhibition of fungal growth at 50 μM ([1]; 50 µM) [%]
CC1CCCC(Cc2cccc(Cl)c2)C1NC(=O)c1c(C(F)F)nn(C)c1F (mixture of isomers) [Example 255]	90	100	4.31 and 4.44 and 4.54				
CC(COc1cc(Cl)cc(Cl)c1)NC(=O)c1c(C(F)F)nn(C)c1F (racemic) [Example 121]	98	100		90	100	3.72	
CC(COc1cc(Cl)cc(Cl)c1)NC(=O)c1c(C(F)F)nn(C)c1Cl (racemic) [Example 122]	91	100		100	100	3.92	
CCC(COc1cc(Cl)cc(Cl)c1)NC(=O)c1c(C(F)F)nn(C)c1F (racemic) [Example 123]	96	100		95	100	4.04	
CC(CNC(=O)c1c(C(F)F)nn(C)c1F)Cc1ccc(Cl)c(Cl)c1 (racemic) [Example 128]	71	83		95	100	3.68	
CC(CCc1ccc(Cl)c(Cl)c1)NC(=O)c1c(C(F)F)nn(C)c1F (racemic) [Example 132]	85	100		100	100	3.65	
CC(CCc1ccccc1Cl)NC(=O)c1c(C(F)F)nn(C)c1Cl (racemic) [Example 143]	73	96		100	100	3.41	
CC(C)CC(C)C1CCCC1NC(=O)c1c(C(F)F)nn(C)c1F (single isomer, unassigned) [Example 317]		100				4.22 isomer B	90
Cc1ccsc1CCC(C)NC(=O)c1c(C(F)F)nn(C)c1Cl (stereo not drawn) [Example 76]	83	100				3.17	
Cc1ccsc1CCC(C)NC(=O)c1c(C(F)F)nn(C)c1F (stereo not drawn) [Example 77]	98	100				3.02	
CCC(CCc1sccc1C)NC(=O)c1c(C(F)F)nn(C)c1Cl (stereo not drawn) [Example 78]	65	83				3.48	
CCC(CCc1sccc1C)NC(=O)c1c(C(F)F)nn(C)c1F (stereo not drawn) [Example 79]	93	100				3.31	
CN(CCN(C)c1cccc(Cl)c1)C(=O)c1c(C(F)F)nn(C)c1Cl [Example 81]	80	97		90		3.19	
CN(CCN(C)c1cccc(Cl)c1)C(=O)c1c(C(F)F)nn(C)c1F [Example 82]	100	100		95		3.02	
Cn1nc(C(F)F)c(C(=O)NCCOc2cc(Cl)cc(Cl)c2)c1F [Example 117]	81	99			78	3.35	
CC(CCc1cc(Cl)cc(Cl)c1)NC(=O)c1c(C(F)F)nn(C)c1Cl (stereo not drawn) [Example 119]	77	95				4.01	
CC(CCc1cc(Cl)cc(Cl)c1)NC(=O)c1c(C(F)F)nn(C)c1F (stereo not drawn) [Example 120]	100	100				3.83	
Cn1nc(C(F)F)c(C(=O)NC(C)(C)CCc2ccc(Cl)c(Cl)c2)c1F [Example 134]	79	100				4.21	

SMILES	% Inhibition of fungal growth at 50 μM [1] [%]	% Inhibition of Aflatoxin at 50 μM [2] [%]	logP ([3]; mixture of two or more isomers, one value per isomer, HPLC reversed-phase C18, 40° C., 0.1% aqueous formic acid and acetonitrile)	Efficacy [4] [%]	Efficacy [5] [%]	logP [3]	% Inhibition of fungal growth at 50 μM ([1]; 50 µM) [%]
CC(CNC(=O)c1c(C(F)F)nn(C)c1Cl)Cc1c(F)cccc1F (stereo not drawn) [Example 158]				80	95	3.21	
CC(CNC(=O)c1c(C(F)F)nn(C)c1Cl)Cc1cc(Cl)ccc1Cl (stereo not drawn) [Example 164]				95	100	3.87	
Cn1nc(C(F)F)c(C(=O)NCCOc2cc(Cl)ccc2Cl)c1F [Example 169]	84	100		90		3.11	
CC(CCc1cc(Cl)ccc1Cl)NC(=O)c1c(C(F)F)nn(C)c1Cl (stereo not drawn) [Example 171]				95	100	3.87	
CCC(COc1cc(Cl)ccc1Cl)NC(=O)c1c(C(F)F)nn(C)c1Cl (stereo not drawn) [Example 176]				80	95	4.01	
Cn1nc(C(F)F)c(C(=O)NC(C)(C)CCc2cc(Cl)ccc2Cl)c1Cl [Example 177]				100	100	4.49	
CC(CCc1ccc(Cl)cc1Cl)NC(=O)c1c(C(F)F)nn(C)c1Cl (stereo not drawn) [Example 185]	89	100				3.99	
CC(COc1ccc(Cl)cc1Cl)N(C(=O)c1c(C(F)F)nn(C)c1Cl)C1CC1 (stereo not drawn) [Example 188]				100	100	4.41	
Cn1nc(C(F)F)c(C(=O)NC(C)(C)CCc2ccc(Cl)cc2Cl)c1Cl [Example 195]				95	95	4.61	
Cn1nc(C(F)F)c(C(=O)NCCOc2c(Cl)cc(Cl)cc2Cl)c1F [Example 202]	84	100			80	3.60	
Cn1nc(C(F)F)c(C(=O)N(CCOc2c(Cl)cc(Cl)cc2Cl)C2COC2)c1F [Example 210]				70	90	3.42	
CN(C(=O)c1c(C(F)F)nn(C)c1F)C(CSCc1ccccc1)C1CC1 (stereo not drawn) [Example 225]	85	100		95		3.46	
Cn1nc(C(F)F)c(C(=O)N(C[Si](C)(C)Cc2cc(Cl)cc(Cl)c2)C2CC2)c1Cl [Example 292]	86	100				5.14	
CSC1CCCCC1N(C(=O)c1c(C(F)F)nn(C)c1F)C1CC1 (stereo not drawn) [Example 351]	100	100				3.50	
CSC1CCCCC1N(C(=O)c1c(C(F)F)nn(C)c1Cl)C1CC1 (stereo not drawn) [Example 352]	85	99				3.73	
Cn1nc(C(F)F)c(C(=O)NCC2CCCC(C(F)(F)F)C2)c1F (stereo not drawn) [Example 379]				95	100	2.96	
Cn1nc(C(F)F)c(C(=O)NC2(C3CCCCC3)CC2)c1Cl [Example 380]				95	100	3.29	
